Measured values: patent US8729014B2, “Specific HCV NS3 protease inhibitors” (RFS Pharma, LLC, priority 2010, dated 2014)

What was measured:
[1] = Cytotoxicity assay in Vero cells; type: cell-based; conditions: African green monkey, Vero cells
Description: (§1) The toxicity of the compounds was assessed in Vero, human PBM, CEM (human lymphoblastoid), MT-2, and HepG2 cells, as described previously (see Schinazi R. F., Sommadossi J.-P., Saalmann V., Cannon D. L., Xie M.-Y., Hart G. C., Smith G. A. & Hahn E. F. Antimicrob. Agents Chemother. 1990, 34, 1061-67). Cycloheximide was included as positive cytotoxic control, and untreated cells exposed to solvent were included as negative controls. The cytotoxicity IC50 was obtained from the concentration-response curve using the median effective method described previously (see Chou T.-C. & Talalay P. Adv. Enzyme Regul. 1984, 22, 27-55; Belen'kii M. S. & Schinazi R. F. Antiviral Res. 1994, 25,1-11).

Vero cells = experiment: Cytotoxicity assay in Vero cells; type: cell-based; conditions: Chlorocebus sabaeus; VERO cells, 100 μM
Description: as §1

Cathepsin G = Cathepsin G (Homo sapiens, UniProt P08311); experiment: Inhibition of human proteases: cathepsin G; type: biochemical
[2] = test system: Hepatitis C Virus NS3/4A protease R155K; experiment: biochemical; conditions: R155K vs Wild Type
[3] = target: Hepatitis C Virus NS3/4A protease R155K (Hepatitis C virus genotype 1b, UniProt O92972, R1181K); experiment: biochemical
[4] = test system: Huh 7 Clone B cells (rRNA); experiment: HCV replicon assay, cytotoxicity by rRNA; type: cell-based; conditions: five days
Description: (§2) Huh 7 Clone B cells containing HCV replicon RNA would be seeded in a 96-well plate at 5000 cells/well, and the compounds tested at 10 μM in triplicate immediately after seeding. Following five days incubation (37° C., 5% CO2), total cellular RNA was isolated by using versaGene RNA purification kit from Gentra. Replicon RNA and an internal control (TaqMan rRNA control reagents, Applied Biosystems) were amplified in a single step multiplex Real Time RT-PCR Assay. The antiviral effectiveness of the compounds was calculated by subtracting the threshold RT-PCR cycle of the test compound from the threshold RT-PCR cycle of the no-drug control (ΔCt HCV). A ΔCt of 3.3 equals a 1-log reduction (equal to 90% less starting material) in Replicon RNA levels. The cytotoxicity of the compounds was also calculated by using the ΔCt rRNA values. (2′-Me-C) was used as the control. To determine EC90 and IC50 values^2, ΔCt: values were first converted into fraction of starting material^3 and then were used to calculate the % inhibition.

[5] = test system: cellular rRNA (cytotoxicity marker); experiment: HCV replicon assay, cytotoxicity by rRNA; type: cell-based; conditions: human, Huh 7 Clone B cells containing HCV replicon RNA; rRNA, Huh 7 Clone B cells
Description: as §2

Chymo-trypsin = experiment: Inhibition of human proteases: chymotrypsin; type: biochemical
[6] = target: Hepatitis C Virus NS3/4A protease Wild Type (Hepatitis C virus genotype 1b, UniProt O92972); experiment: HCV NS3/4A protease FRET assay, wild type; type: biochemical
Description: The HCV NS3/4A protease assays were carried out using a SensoLyte® 490 HCV Protease Assay Kit using fluorescence resonance energy transfer (FRET) peptide (AnaSpec).

Cathepsin S = target: T1, Cathepsin S (Homo sapiens, UniProt P25774); experiment: Inhibition of human proteases: cathepsin S; type: biochemical
T1 construct: purchased Anaspec
Description: In an effort to circumvent similar toxicities, new protease inhibitors were evaluated for inhibition of a panel of important human proteases. The enzymes tested are Elastase (Neutrophil), Plasmin, Thrombin, and Cathepsin S.
Cathespsin S (Sensolyte Cathepsin S Activity Assay Kit (Anaspec)): Reactions were conducted in a sample volume of 100 μL per well in a black 96 well plate. Protocol A was followed from the kit insert where DTT was added to assay buffer to yield a […] concentration. Included in each assay were a positive control (diluted enzyme and no test compound), inhibitor control (contains diluted enzyme and plasmin inhibitor; component E or thrombin inhibitor; N-a-NAPAP synthetic inhibitor) and substrate control (assay buffer and substrate). Vehicle and autofluorescence controls were also performed. Drug dilutions were added (10 μL) at 10× concentrations in assay buffer. The cathepsin S was added at 40 μL/well at a concentration of 2.5 μg/mL to all wells except the substrate control. Finally, 50 µL of assay buffer containing substrate was added to each well. The substrate was added to a final concentration of 16 nM. […] The fluorescence intensity was read on the Victor 3 plate reader at Ex/Em=490 nm/520 nm. […] Results are shown as substrate control adjusted percentages of maximum absorbance, which was given by the positive control.

[7] = target: Hepatitis C Virus NS3/4A protease D168A (Hepatitis C virus genotype 1b, UniProt O92972, D1194A); experiment: biochemical
[8] = test system: Hepatitis C Virus NS3/4A protease D168A; experiment: biochemical; conditions: D168A vs Wild Type
[9] = target: Hepatitis C Virus NS3/4A protease V36M (Hepatitis C virus genotype 1b, UniProt O92972, V1062M); experiment: HCV NS3/4A protease FRET assay, V36M; type: biochemical
[10] = test system: Hepatitis C Virus NS3/4A protease V170A; type: biochemical; conditions: V170A vs Wild Type
[11] = target: T2, Hepatitis C Virus NS3/4A protease V170A (UniProt Q9WMX2, V1196A, species not given); type: biochemical; conditions: V170A
T2 construct: other: V170A; Anti-HCV protease activity EC90

[12] = test system: CEM (human lymphoblastoid) cells; experiment: Cytotoxicity assay in CEM cells; type: cell-based; conditions: Homo sapiens, CCRF-CEM, 100 μM
Description: as §1

[13] = Cytotoxicity assay in CEM cells; type: cell-based, human; conditions: human, CEM (human lymphoblastoid) cells
Description: as §1

[14] = read-out: Anti-HCV protease activity EC50
[15] = read-out: Anti-HCV protease activity EC90

With C=C[C@@H]1C[C@]1(NC(=O)[C@@H]1C[C@@H](OC(=O)N2Cc3cccc(F)c3C2)CN1C(=O)[C@@H](NC(=O)OC(C)(C)C)C(C)(C)C)C(=O)NS(=O)(=O)C1CC1 [Compound 10] the IC50 [1] was > 100000 nM, the inhibition at 100 µM (Vero cells) was -0.8% and the IC50 (Cathepsin G) was > 100000 nM. The “Fold Increase of EC50” value [2] was 55.8, the “Fold Increase of EC90” value [2] was 91.4 and the EC50 [3] was 270 nM. The EC90 ([3]; R155K, read-out: Anti-HCV protease activity EC90) was 2700 nM, the “DCt rRNA” value ([4]; Conc 0.01 μM) was −0.21 and the “rRNA (% inhibition)” value ([4]; Conc 0.01 μM) was −15.99. For the same molecule, the “DCt rRNA” value ([4]; Conc 0.03 μM) was −0.49, the “rRNA (% inhibition)” value ([4]; Conc 0.03 μM) was −40.10 and the “DCt rRNA” value ([4]; Conc 0.1 μM) was −0.09. The “rRNA (% inhibition)” value ([4]; Conc 0.1 μM) was −6.27, the “DCt rRNA” value ([4]; Conc 0.3 μM) was 0.14 and the “rRNA (% inhibition)” value ([4]; Conc 0.3 μM) was 9.35. The CC50 at 5 days [5] was > 300 nM, the IC50 (Chymo-trypsin) was > 100000 nM and the “Fold Increase of EC50” value [6] was 1.0. The “Fold Increase of EC90” value [6] was 1.0, the EC50 [6, 14] was 4.9 nM and the EC90 [6, 15] was 30 nM. For the same molecule, the IC50 (Cathepsin S) was > 100000 nM, the EC50 [7] was 570 nM and the EC90 ([7]; D168A, read-out: Anti-HCV protease activity EC90) was 8300 nM. The “Fold Increase of EC50” value [8] was 115.3, the “Fold Increase of EC90” value [8] was 278.5 and the “Fold Increase of EC50” value ([9]; V36M vs Wild Type) was 0.7. For the same molecule, the “Fold Increase of EC90” value ([9]; V36M vs Wild Type) was 1.5, the EC50 ([9]; V36M, read-out: Anti-HCV protease activity EC50) was 3.4 nM and the EC90 ([9]; V36M, read-out: Anti-HCV protease activity EC90) was 45.5 nM. The “Fold Increase of EC50” value [10] was 1.1, the “Fold Increase of EC90” value [10] was 0.3 and the EC50 [11, 14] was 5.5 nM. The EC90 [11, 15] was 9.5 nM, the inhibition at 100 µM [12] was 11% and the IC50 [13] was > 100000 nM.
